{"source": "patent US11389423B2", "about": "“Pharmaceutical composition, excipient for the composition and use of the composition” (priority 2018, dated 2022)", "key": {"[1]": {"system": "polychromatic erythrocytes", "conditions": "rats male and female, 500, 1000 and 2000 mg/kg orally", "procedure": "To perform the micronucleus test (Schmid, 1976), different groups of rats (male and female; n=10) received three doses of CBD (500, 1000 and 2000 mg/kg) orally. The negative control group received placebo by gavage and the positive control was treated with cyclophosphamide monohydrate (20 mg/kg—Sigma-Aldrich) intraperitoneally. After 24 hours (cyclophosphamide) and 48 hours (CBD-SINT and vehicle) the end of treatments, the animals were euthanized by decapitation. The femurs were removed, the proximal epiphysis was removed to expose the medullary canal and, with the aid of a 13×4.5 mm needle and 3 mL NaCl solution (150 mM), the marrow was removed, washing the medullary canal with NaCl solution. The material was transferred to glass tubes and centrifuged at 1000 rpm/5 min. After centrifugation, the supernatant was discarded, and the deposit was resuspended with a 4% formaldehyde solution and slightly homogenized with the aid of a Pasteur pipette. A drop of this cell suspension was placed on a clean, dry slide, and then the smear was performed. The slides were dried at room temperature and, after 24 hours, stained with Leishman eosin-methylene blue and subjected to microscopic analysis. To determine the number of micronuclei, 2000 polychromatic erythrocytes were counted per animal (1000 in each slide) using an optical microscope, at 400× magnification. The analysis of the slides was blind and performed by a single evaluator."}, "[2]": {"system": "striatal levels of dopamine, DOPAC and AVM", "assay": "Determination of striatal dopamine, DOPAC and HVA levels (HPLC-ECD), MPTP model", "assay_type": "in vivo, rats", "procedure": "For the experiments with MPTP (neuroprotection), the animals were divided into the following experimental groups: • MPTP+placebo • MPTP+CBD-SINT 12 mg/kg • MPTP+CBD-SINT 36 mg/kg • MPTP+CBD-SINT 120 mg/kg • Sham+placebo • Naive\nCBD-SINT and placebo were administered orally (gavage) for 18 days prior to the administration of the neurotoxin by stereotactic surgery, and for another 10 days after surgery. After the administration of the neurotoxin, the behavioral (locomotor activity) and biochemical (brain dopamine dosage) parameters were evaluated after 24 hours and after 10 days. The memory tests (Morris water maze) were performed daily from day 1 to day 10 after the administration of the neurotoxin (FIG. 13).\nThe rats were submitted to stereotactic surgery (stereotactic—David Kopf, model 957L) and received bilateral microinfusion of MPTP or 6-OHDA (different groups of rats) directly into the substantia nigra. For surgery, the following stereotaxic coordinates were used: anteroposterior: 5.0 mm from the bregma; mediolateral: ±2.1 mm from the midline and dorsoventral: −7.7 mm from the cranial vault (Paxinos and Watson, 1986). Then, 100 μg MPTP (diluted in 1 μL saline, with a flow of 0.33 μL/min) or 8 μg 6-OHDA (diluted in 2 μL saline with 0.2 μg/μL ascorbic acid, with a flow rate of 0.33 μL/min) were injected. The microinfusions were performed with the aid of a needle (30 gauge) connected to a polyethylene tube adapted to a […] micro-syringe (Hamilton, USA), which in turn, is fitted into an infusion pump (Harvard Apparatus, USA). After the end of the microinfusion, the needle was kept in place for another 2 minutes to prevent reflux of the neurotoxins. Then, the scalp was sutured, and the animals were removed from the stereotaxic. The rats were then placed in its original cages. The animals in the Sham groups were subject to the same surgical procedure, however without receiving the neurotoxins, being only introduced to the needle in the same stereotactic coordinates. The rats of naive groups were not subject to stereotactic surgery but were removed from the housing cage for handling for a few hours.\nAfter the last set of experiments, the animals from the nigrostriatal treatment with MPTP and its respective controls were euthanized by decapitation. The levels of dopamine (DA) and its metabolites 3,4-dihydroxyphenylacetic acid (DOPAC) and homovanilic acid (HVA) were determined by high-performance liquid chromatography with an electrochemical detector (HPLC-ECD) according to Luo et al. (2009).\nBriefly, the striatum was dissected, weighed, and homogenized in 0.2 M cold perchloric acid. The sample was then centrifuged twice at 14,000 g for 15 min at 4° C. […]"}}}
{"smiles": "C=C(C)[C@@H]1CCC(C)=C[C@H]1c1c(O)cc(CCCCC)cc1O", "note": "[CBD-SINT, Cannabidiol]", "values": [{"measurement": "ratio of polychromatic/normochromatic erythrocytes (PCE/NCE ratio) vs placebo", "setting": "[1]", "result": "did not cause any significant change"}, {"measurement": "MNPCE number vs placebo (C-)", "setting": "[1]; 48 hours", "result": "in a similar way to that found for animals treated only with placebo"}, {"measurement": "striatal levels of DOPAC", "setting": "[2]; MPTP rats, 12 mg/kg orally", "result": "significantly increase"}, {"measurement": "striatal levels of dopamine", "setting": "[2]; MPTP rats, 12 mg/kg orally", "result": "significantly increase"}, {"measurement": "levels of all markers after treatment vs naive and Sham groups", "setting": "[2]; MPTP rats, 12, 36 and 120 mg/kg orally", "result": "statistically lower"}, {"measurement": "striatal concentration of all evaluated markers (dopamine, DOPAC and AVM)", "setting": "[2]; MPTP rats, 36 and 120 mg/kg orally", "result": "increased"}]}
